The values that follow come from patent US20060122153A1, “Antineoplastic ether lipid compounds with modifications at the sn-2 carbon” (priority 2003, published 2006).

The structures appear in SMILES notation. “And” between values parts separate entries of the source, which are not always exact repeats. Identical values can stand only once. “Also recorded” adds a separate entry of the source. Like-named read-outs stand apart in the source and are kept apart here.

Data set [1] deals with platelets in dog whole blood. As to the kind of experiment: Platelet aggregation in whole blood (Chronolog whole blood aggregometer).
Description: (§5) Briefly, whole citrated blood is diluted 1:2 with sterile saline and placed in a warm chamber with a mini stir bar. An electronic probe, measuring electrical resistance, is inserted in the sample. The aggregometer is calibrated and the baseline is observed to detect any spontaneous aggregation. The test sample is added and allowed to run for at least 6 minutes. If the sample is an agonist the platelets will start to aggregate and stick to the electronic probe causing resistance across the electrodes to increase. This resistance, in ohms, is measured 6 minutes post addition of sample. The test samples are run at 25, 100, 200, 400 and 800 uM and compared to 100 uM L-ET-18-OCH3.
(§6) Collection of Blood Sample for in vitro Platelet Aggregation Testing: Venous blood is collected in 4.5 mL Vacutainer tubes containing 0.129 M sodium citrate using a 21G needle or larger. Blood is immediately mixed by gentle inversion 15-20 times and kept at room temperature. Dilution ratio is 1 to 9 (3.8% citrate solution:blood). One (2.0 mL) Vacutainer tube containing EDTA is also collected for platelet counts. Complete blood counts (CBC) are measured on the CDC Technologies Hemavet 1500 to ensure that the test subject's platelets are within normal range. Amy vials of hemolytic blood or blood containing any clots should be discarded. Platelet aggregation testing must be completed within 3 hours of blood collection. After this time the ability of platelets to aggregate decreases.
(§7) Dilutions were prepared in PBS or saline at 40× concentration. (25 uL test sample are added to 1000 uL diluted blood (1:40)).
The test system of the next data set is whole human blood. The data set is described as follows: Hemolysis assay with whole human blood. Here is the method: Venous blood was collected in 10 mL Vacutainer tubes containing EDTA using a 21G needle or larger.
Stock solutions of 20 mM test sample in phosphate buffered saline (PBS) were prepared as follows:
Then 270 uL of whole blood was aliquotted in duplicate mini test tubes using positive displacement pipet. Next, 30 uL of each working stock solution, in duplicate, was added to the whole blood. Next, 30 uL of PBS was added for background control. The samples were capped or sealed with Parafilm and gently mixed. The blood was incubated at 37° C. in gentle rotating water bath for 30 minutes. Final concentration of test sample was 10% of working stock solution.
Total hemolysis samples of 1,% and 10% whole blood samples in deionized water were prepared as follows:
The samples were freeze thawed 3× in liquid nitrogen then wafer bath. The samples were then centrifuged 10 minutes at 1500 RPM. Next, 100 uL of supernatant was transferred to a cuvette and 1 mL deionized water was added. The absorbance was read at 550 nm vs. water blank.
H10 and H50 were calculated by graphing Percent Total Hemolysis vs. Test Sample Concentration. The Percent Total Henolysis=(average o.d of test sample)/(average o.d. of total hemolysis sample)×100

The test system of another data set is U937. The data set is described as follows: In vitro growth inhibition (GI50), cell growth assay. The format is cell-based, human. The conditions noted are these: U937 tumor cell line, 3 days. Here is the method: After 3 days of incubation, cell growth was determined.
To determine the Growth Inhibition in the suspension cell lines, cell numbers were directly counted instead of using the SRB assay which determines the total cell protein. One day prior to the drug treatment, 40,000 cells per well were seeded into 24-well plates in a volume of 0.5 mL. Stock solutions were diluted with complete medium to twice the desired final concentrations, and then 0.5 mL aliquots of each dilution were added to the designated wells. After 3 days incubation, cell growth was determined by counting cell number using a coulter counter (Z-M, coulter). Cell counts were-also taken at time 0 and subtracted from the test results to give net growth.

The test system of another data set is A549. As to the kind of experiment: In vitro growth inhibition (GI50), SRB assay. Type of data set: cell-based, human. The conditions noted are these: A549 tumor cell line, 3 days. The source says:
(§1) The following cell lines were selected from the cell bank for screening and GI50 studies: MCF-7: human breast tumor, MCF-7/ADR: MCF-7 adriamycin resistant subline, HT-29: human colon carcinoma, A-549: human non-small cell lung cancer, NIH-3T3: mouse Swiss embryo fibroblast and WI-38: human lung fibroblast, SKMEL-28: human melanoma, Lewis Lung: mouse lung carcinoma, DU-145: prostate carcinoma, B16F10: mouse melanoma, L1210: murine lymphocytic leukemia, P-388: murine leukemia, U-937: human histolytic lymphoma. Except HT-29, WI-38, NIH-3T3 and Lewis Lung which were obtained from the American Type Culture Collection (Rockville, Md.) all the other cell lines were obtained from National Cancer Institute—Frederick Research Facility (Frederick, Md.). All the cell lines were grown in RPMI-1640 medium containing 10% fetal bovine serum (FBS) except WI-38 and DU-145 which were grown in EMEM+10% FBS at 37° C., 5% CO2 and 100% humidity and NIH-3T3, Lewis Lung, B16F10 and L1210 which were grown in DMEM containing 10% FBS (10% HS for L1210). All the adherent cell lines were detached from the culture flasks by addition of 2-3 ml of 0.05% trypsin-EDTA. Thereafter, trypsin was inactivated by addition of 10 mL of 10% serum-containing RPMI-1640 medium. Cells were separated into a single-cell suspension by gentle pipetting action. Depending on the cell type, 3,6000 to 10,000 cells were plated onto 96-well plates a day prior to the drug treatment, in a volume of 100 μl per well.
(§2) The test compounds were made in-house and the compounds were dissolved PBS or saline at a stock concentration of approximately 20 mM, which is 400 times the desired final maximum test concentration. The stock solutions were then diluted with complete medium to twice the desired final concentration. 100 μl aliquots of each dilution was then added to the designated wells. After 3 days of incubation, cell growth was determined.
(§3) The SRB assay was performed as described by Monks, A., Scudiero, D., Skehan, P., Shoemaker, R., Paull, K., Vistica, D., Hose, C., Langley, J., Cronise, P., and Vaigro-Wolff, A. Feasibility of a high-flux anticancer drug screen using a diverse panel of cultured human tumo-r cell lines. J Natl Cancer Inst, 83: 757-766, 1991 with minor modifications. Following drug treatment, cells were fixed with 50 μl of cold 50% (wt/vol) trichloroacetic acid (TCA) for 60 minutes at 4° C. The supernatant was discarded, and the plates were washed six times with deionized water and then air dried. The precipitate was stained with 100 μl SRB solution (0.4% wt/vol in 1% acetic acid) for 10 minutes at room temperature, and free SRB was removed by washing three times with 1% acetic acid, and the plates were then air dried. Bound SRB was solubilized with Tris buffer (10 mM), and the ODs were read using an automated plate reader (Bio-Rad, Model 3550-UV) at 490 nm. Background values were subtracted from the test data, and the data was calculated as a % of control. […] Percentage growth was calculated as described by, Peters, A. C., Ahmad, I., Janoff, A. S., Pushkareva, M. Y., and Mayhew, E. Growth Inhibitory effects of liposome-associated 1-o-octadecyl-2-o-methyl-sn-glycero-3-phosphocholine. Lipids, 32:1045-1054, 1997. The raw optical density data Was imported into an Excel spreadsheet to determine dose responses. […] By varying drug concentration,-dose response curves were generated and the GI-50 values were calculated. The GI50 values for each experiment were calculated using data obtained from three duplicate wells on two separate plates.
(§4) For growth inhibitory evaluation, we used five human tumor cell lines (U937; HT29; A549; MCF7; MCF7/ADR) and two normal fibroblast cell lines (NIH-3T3, murine; WI-38, human).

The subject of a further data set is HT29. The data set is described as follows: In vitro growth inhibition (GI50), SRB assay. The conditions noted are these: HT29 tumor cell line, 3 days. The format is cell-based, human.
Description: as §1, §2, §3, §4
In general terms: The SRB assay estimates cell density from bound dye.

The subject of another data set is MCF7/ADR. As to the kind of experiment: In vitro growth inhibition (GI50), SRB assay. Type of data set: cell-based, human. The settings on record: MCF7/ADR tumor cell line, 3 days.
Description: as §1, §2, §3, §4

The subject of another data set is MCF7. The data set is described as follows: In vitro growth inhibition (GI50), SRB assay. The settings on record: MCF7 tumor cell line, 3 days. The format is cell-based, human.
Description: as §1, §2, §3, §4

Another data set relates to NIH-3T3. As to the kind of experiment: In vitro growth inhibition (GI50), SRB assay, normal fibroblast. The conditions noted are these: NIH-3T3 normal murine fibroblast cell line, 3 days. Type of data set: cell-based, mouse.
Description: as §1, with “All the adherent cell lines were detached from the culture flasks by addition of 2-3 ml of 0.05% trypsin-EDTA. Thereafter, trypsin was inactivated by addition of 10 mL of 10% serum-containing RPMI-1640 medium. Cells were separated into a single-cell suspension by gentle pipetting action. Depending on the cell type, 3,6000 to 10,000 cells were plated onto 96-well plates a day prior to the drug treatment, in a volume of 100 μl per well.” left out
The test compounds were made in-house and the compounds were dissolved PBS or saline at a stock concentration of approximately 20 mM, which is 400 times the desired final maximum test concentration. […] After 3 days of incubation, cell growth was determined.
The SRB assay was performed as described by Monks, A., Scudiero, D., Skehan, P., Shoemaker, R., Paull, K., Vistica, D., Hose, C., Langley, J., Cronise, P., and Vaigro-Wolff, A. Feasibility of a high-flux anticancer drug screen using a diverse panel of cultured human tumo-r cell lines. […] Bound SRB was solubilized with Tris buffer (10 mM), and the ODs were read using an automated plate reader (Bio-Rad, Model 3550-UV) at 490 nm. Background values were subtracted from the test data, and the data was calculated as a % of control. […] Percentage growth was calculated as described by, Peters, A. C., Ahmad, I., Janoff, A. S., Pushkareva, M. Y., and Mayhew, E. Growth Inhibitory effects of liposome-associated 1-o-octadecyl-2-o-methyl-sn-glycero-3-phosphocholine. […]

The subject of the next data set is WI38. The settings on record: WI38 normal human fibroblast cell line, 3 days.
Description: as §1, §2, §3, §4

The subject of data set [2] is DEVDase activity (Caspase 3) in Jurkat T cells. As to the kind of experiment: DEVDase activity in Jurkat T cells. Type of data set: cell-based. The conditions noted are these: Jurkat T cells, 6 hours. How it is done: Suspension cells were seeded at density 3.2×10^5 cells per mL in RPMI-1640 medium (Bio-Whittaker) supplemented with 10% heat inactivated FBS (Bio-Whittaker). Cells were pre-incubated overnight prior to treatment with the ether lipid compounds of the invention. At treatment time cell density was 5×10^5 cells per mL. Cells were incubated with the ether lipid compounds of the invention for various periods of time, usually 6 hours. Cells were collected, washed with 1×DPBS and resuspended in 110 μl of Buffer A (10 mM BEPES-KOH, pH 7.4, 2 mM EDTA, 0.1% CHAPS, 5 mM DTT, 1:100 dilution of protease inhibitors cocktail (Sigma)-DTT and protease inhibitors should be added just before use). After 10 min incubation on ice in order to lyse cells, samples were frozen on dry ice/ethanol and kept at −20° C. until analysis.
At the time of analysis of DEVDase activity frozen pellets were kept on ice until thawed and after vigorous vortexing samples were centrifuged at 14,000 rpm for 6 min.; Supernatant was transferred into another tube and 2 μl, in triplicates, were used for protein measurement using Bradford reagent (Bio-Rad).
Measurement of DEVDase activity was carried out in 100 μl volume, where 10 μg of protein was delivered in 50 μl of Buffer A and 40 μM of substrate Ac-DEVD-AMC was also delivered in 50 μl of Buffer A. All measurements were done in triplicates. Reaction was carried out for 1 hour and generation of fluorescent product of reaction (aminomethylcoumarin) was measured by reading fluorescence at 1em 460 nm (1ex 360 nm). Changes in DEVDase activity were calculated after subtraction of background fluorescence of substrate incubated without proteins, and were expressed as percent of control (DEVDase activity in untreated cells). Average of DEVDase activity, calculated from few independent experiments, was used to calculate percent of L-ether lipid-induced DEVDase activity.

Data set [3] concerns platelets in dog whole blood.
Description: as §5, §6, §7

Turning to `CCCCCCCCCCCCCCCCCCOC[C@@H](N)COP(=O)([O-])OCC[N+](C)(C)C` [9(R)], the “platelet aggregation response (in words)” value in data set [1] is reported as “clear platelet aggregation response; also recorded: elicited a platelet aggregation response”. Further, the “Relative Platelet Aggregation (Ohms)” value in data set [1] (25 μM) is 8 Ohms; in data set [1] (100 μM) it was 16 Ohms; in [1] (400 μM), 10 Ohms; in data set [1] (800 μM), 0 Ohms.

As to `CCCCCCCCCCCCCCCCCCOCC(COP(=O)([O-])OCC[N+](C)(C)C)OC` [L-ET18OCH3, 1-O-octadecyl-2-O-methyl-glycerophosphocholine, reference compound], the H50 in the data set with whole human blood is given as 2000, >2000 μM. Besides, the GI50 in the data set on U937 is 1 to 1.5 µM; with A549, 6.5 to 9.1 µM; in the data set with HT29, 5.5 µM and 6 µM; with MCF7/ADR, at least 25.7 µM; in the data set with MCF7, 9.7 to 18.6 µM; in the data set on NIH-3T3, 46.6 µM. In the data set on WI38, this molecule came in with a GI50 of 10 to 12.8 µM. Further, the figures for the “% L-ET18OCH3 (DEVDase, 6 hrs)” value in [2] (10 μM ether lipid), in [2] (20 μM ether lipid) and in data set [2] (30 μM ether lipid) were 100 ± 8.8%, 100 ± 10.4% and 100 ± 9.3%, respectively. Further, the Platelet aggregation result in data set [3] is recorded as “+++”. Also, the “platelet aggregation response (in words)” value in data set [3] is recorded as “elicits a platelet-aggregation response”.

The term GI50 denotes the concentration giving 50% growth inhibition. Low readings indicate more potent growth inhibition, high ones less potent growth inhibition.
